Several values for one entry are separate records, joined by “and”; a condition that tells them apart may be missing. Equal values may be shown once. Read-outs that look alike come from different tables or passages of the source.
System: L5178Y tumor cells
Conditions: for No. Survivors: 100 mg/kg
Protocol: Ten days later the resultant tumor nodule, about 1 cm in size, is surgically excised. If the excision was successful, no subcutaneous tumors develop at the site of implantation. […] These mice are considered to be in the tumor dormant state.
The effect of Cpd. 1 on the establishment of the L5178Y tumor dormant state is studied by treating forty DBA/2 mice with Cpd. 1 after the mice have undergone the TDS inducing procedure. […] 1 at 100 mg/kg and the remaining twenty mice receive buffer only. A partial peritoneal lavage is performed twenty-five days after the last dose of Cpd. 1 and the peritoneal exudate fluid is plated out for determination of tumor cell numbers (tumor cell quantitative assay). Survival time is recorded out to 90 days after challenge with the viable L5178Y tumor cells. The percent mortality is calculated for each group.
The effect of Cpd. 1 on the establishment of the L5178Y tumor dormant state was studied by treating forty DBA/2 mice with Cpd. 1 after the mice had undergone the TDS inducing procedure. Two days after the mice were challenged with i.p. administration of 50,000 viable L5178Y tumor cells, twenty of these mice received seven consecutive days of i.p. treatment with Cpd. 1 at 100 mg/kg and the remaining twenty mice received buffer only. A partial peritoneal lavage was performed twenty-five days after the last dose of Cpd. 1 and the peritoneal exudate fluid was plated out for determination of tumor cell numbers (tumor cell quantitative assay). Survival time was recorded out to 114 days after challenge with the viable L5178Y tumor cells. The percent mortality was calculated for each group.

[1] = No. tumor cells >100,000, 100 mg/kg i.p., 7 days

Cc1ccc(C2(O)C(=O)OC3C(O)COC32O)o1.Cc1ccc(C2(O)C(=O)OC3C(O)COC32O)o1.O=C1CCC(=O)O1 (stereo not shown) [Cpd. 1, 2-furylbutyrolactone:succinic anhydride]
numbers of tumor cells recovered (in words) (100 mg/kg i.p., 7 days): significant reduction in the numbers of tumor cells recovered | survival (in words) (100 mg/kg i.p., 7 days): significantly greater survival | No. Survivors (90 days post-challenge): 10 | No. Survivors (114 days post-challenge): 19 | Frequency (mice), treated group (No. tumor cells 1,000 to 100,000, 100 mg/kg i.p., 7 days): 7 and 4 | % of Total, treated group [1]: 6% and 4.3% | Frequency (mice), treated group [1]: 1

From US4518611A, “2-Furylbutyrolactone modulation of the immune system in mammals” (priority 1983, dated 1985)
